Columns and labels:
Type in all cases: in vivo
ICR mice [1] = experiment: Itching induced by histamine in ICR mice, oral administration; conditions: for antipruritic effects (in words): histamine; for % Inhibition (mean ± SE): scratching frequency over 30 min, histamine 100 nmol/mouse i.d. 1 h after dosing
Source text: Itching Induced by Histamine in ICR Mice
It is known that the itching response induced by histamine in rodents is generally weaker than that in humans (Kuraishi et al., 1995, Eur. J. Pharmacol. 275, pp 229-233). However, it is known that uniquely, ICR mice sensitively respond to histamine, and this leads to itching response (Maekawa et al., 2000, Jpn. J. Pharmacol. 84, pp 462-466). As is widely known, histamines are representative itching mediators and obviously induce itching in human subjects (Simone et al., 1987, Somatosens. Res. 5, pp 81-92). In this experiment, ICR mice received […]. One day before the experiment, the rostral part of the skin on the back of male ICR mice (28˜32 g, 5˜8 mice/group was clipped. The mice were fasted for 18 hours before experimentation. The drug (compound 1, 0.5 ml/mouse) was dissolved in hydroxypropyl-β-cyclodextrin (HP-β-CD; Mitsubishi Ltd., Japan), and then orally administered to the mice. One hour after the administration, histamine (100 nmol/50 μl/mouse) was dissolved in a physiological saline solution and injected intradermally into the back skin of mice. Immediately after the injection, the mice were placed in a transparent cage, and then the frequency of scratching of the injected site by the hind paws was counted for 30 minutes. The frequency of scratching in test groups administered with the drug was compared to that in a control group administered with histamine alone. The decrease in the frequency of scratching in the test groups was determined as an index of inhibitory effects on itching. The decrease in the frequency of scratching was expressed as a percentage of inhibition to determine inhibitory effects of each compound on itching.

ICR mice [2] = experiment: Itching induced by compound 48/80 (C48/80) in ICR mice, intradermal administration; conditions: for inhibitory effects on itching (in words): C48/80, ICR mice; for % Inhibition (mean ± SE): scratching frequency over 60 min, C48/80 50 μg/mouse i.d., ICR mice
Source text: Itching Induced by Compound 48/80 (C48/80) in ICR Mice
Intradermal Administration
ICR mice suffer from itching upon administration of histamines, and C48/80 (condensation product of N-methyl-p-methoxyphenethylamine with formaldehyde, Sigma, U.S.A.) is a substance that stimulates connective tissues and skin mast cells to release mediators, such as histamines, causing itching. C48/80 causes itching when intradermally administered to humans (Rukwied et al., 2000, Br. J. Pharmacol., 142, pp 1114-1120). In this experiment, ICR mice received C48/80 to induce itching. One day before the experiment, the rostral part of the skin on the back of male ICR mice (28˜32 g, 4˜11 mice/group) was clipped. After the drug (compound 1, 50 μl/mouse) was dissolved in hydroxypropyl-β-cyclodextrin (HP-β-CD; Mitsubishi Ltd., Japan) and C48/80 (50 μg/50 μl/mouse) was dissolved in a physiological saline solution, the solutions were simultaneously injected intradermally into the back skin of mice. Immediately after the injection, the mice were placed in a transparent cage and then the frequency of scratching of the injected site by the hind paws was counted for 60 minutes. The frequency of scratching in test groups administered with the drug was compared to that in a control group administered with C48/80 alone. The decrease in the frequency of scratching in the test groups was determined as an index of inhibitory effects on itching. The decrease in the frequency of scratching was expressed as a percentage of inhibition to determine inhibitory effects of each compound on itching.

BALB/C mice = experiment: Itching induced by compound 48/80 (C48/80) in BALB/C mice, oral administration; conditions: for % Inhibition (mean ± SE): scratching frequency over 30 min, C48/80 1 h after dosing, BALB/C mice; for inhibitory effects on itching (in words): C48/80, BALB/C mice
Source text: Itching Induced by Compound 48/80 (C48/80) in BALB/C Mice
The frequency of scratching induced by an itching-inducing substance varies depending on mouse strain. For example, it was reported that BALB/C mice are less sensitive to histamines and serotonin than ICR mice (Inagaki et al., 2001, Skin Pharmacol. Appl. Skin Physiol., 14, pp 87-96). […] In this experiment, BALB/C mice received C48/80 to induce itching. One day before the experiment, the rostral part of the skin on the back of BALB/C mice (19˜21 g, 6˜12 mice/group) was clipped. After compound 1 was dissolved in HP-β-CD, and compounds 2 and 3 were dissolved in a physiological saline solution containing 10% ethanol and 10% Tween 80, the solutions were orally administered (10 ml/kg) to the mice. One hour after the administration, C48/80 (50 μg/50 μl/mouse) was dissolved in a physiological saline solution and injected intradermally into the back skin of mice. Immediately after the injection, the mice were housed in a transparent cage and then the frequency of scratching of the injected site by the hind paws was counted for 30 minutes. The frequency of scratching in test groups administered with the drugs was compared to that in a control group administered with C48/80 alone. The decrease in the frequency of scratching in the test groups was determined as an index of inhibitory effects on itching. The decrease in the frequency of scratching was expressed as a percentage of inhibition to determine inhibitory effects of each compound on itching.

ICR mice [3] = experiment: Inhibition of skin irritation induced by tacrolimus in ICR mice; conditions: intradermal; for % Inhibition (mean ± SE): scratching frequency over 30 min, tacrolimus 50 μg/mouse i.d.
Source text: Inhibition of Skin Irritation Induced by Tacrolimus in ICR Mice
Subcutaneous Administration
Tacrolimus is an immunosuppressant widely used in liver and renal transplantation (Lawrence, 1998, Dermatol. Ther., 5, pp 74-84). Tacrolimus is currently used in the form of ointment for treating skin diseases, such as atopic dermatitis (Wollenberg et al., 2001, J. Allergy. Clin. Immunol., 107, pp 519-525), psoriasis (Nasr, 2000, Clin. Exp. Dermatol., 25, pp 250-254), allergic contact dermatitis (Lauerma et al., 1992, Lancet, 340, p 556), and the like. However, it was reported that tacrolimus enhances irritation in human models with irritant contact dermatitis (Fuchs et al., 2002, Contact dermatitis, 46, pp 290-294). It was reported that tacrolimus causes side effects, such as skin irritation, itching and erythema, in its initial stage of use (Gupta et al., 2002, JEADV, 16, pp 100-114; Gupta and Chow, 2003, JEADV, 17, pp 493-503). No experimental model of skin irritation by tacrolimus in animal experiments is currently known. Accordingly, tacrolimus as a skin-irritant substance was directly injected to ICR mice by intradermal injection, and then scratching behavior of the mice was observed. One day before the experiment, the rostral part of the skin on the back male ICR mice (30˜33 g, 10 mice/group) was clipped. After the drug (compound 1, 50 μl/mouse) was dissolved in 28% hydroxypropyl-β-cyclodextrin (HP-β-CD; Mitsubishi Ltd., Japan) and tacrolimus (50 μg/50 μl/mouse, Cipla, India) was dissolved in a physiological saline solution containing 5% ethanol and 5% Tween 80, the solutions were simultaneously injected intradermally into the back skin of mice. Immediately after the injection, the mice were placed in a transparent cage and then the frequency of scratching of the injected site by the hind paws was counted for 30 minutes. The frequency of scratching in test groups administered with the drug was compared to that in a group administered with tacrolimus alone. […] The decrease in the frequency of scratching was expressed as a percentage of inhibition to determine inhibitory effects of each compound on skin irritation.

[4] = tested on: New Zealand white rabbits; experiment: Inhibition of skin irritation induced by retinoic acid in New Zealand white rabbits, topical administration
Source text: Inhibition of Skin Irritation Induced by Retinoic Acid in New Zealand White Rabbits
However, it is known that retinoic acid causes irritation in its initial stage of use and further causes side effects, such as skin erythema and edema, when topically applied to the skin (Varani et al., 2003, Arch. Dermatol. Res., 295, pp 255-262). A number of attempts to reduce the skin irritation induced by retinoic acid have been made in many directions (Kim et al., 2003, Toxicol. Letters., 146, pp 65-73). […] In this experiment, New Zealand white rabbits received retinoic acid to cause skin irritation. One day before the experiment, hairs around the back of four male New Zealand white rabbits (2.0˜2.5 kg) were shaved. Four application sites, which are symmetrical by two (i.e. right upper-site-left upper site and right lower site-left lower site), were marked at the shaved back of each rabbit. 100 μl of 0.025% retinoic acid (Sigma, U.S.A.) was topically applied to all four-application sites. 30 minutes after the application, the two sites marked at the right were treated with the drug (compound 1, 1%/100 μl/each application site), and the two sites marked at the left were treated with a solvent (100 μl/each application site) alone. At this time, retinoic acid and the drug were dissolved in a mixed solution of PEG 400 and ethanol (7:3), and then topically applied twice daily for four consecutive days. On the fifth day, the application sites were visually observed to evaluate the degree of skin irritation. The degree of skin irritation was expressed in a cumulative irritation index. […] The cumulative irritation index was judged based on occurrence of erythema, and scored in accordance with the following criteria: Occurrence of no erythema (0), occurrence of slightly visible erythema (1), occurrence of distinct erythema (2), occurrence of distinct scarlet erythema (3), and occurrence of distinct crimson erythema and scaling (4).

`CN1CCCC(n2nc(Cc3ccc(Cl)cc3)c3ccccc3c2=O)CC1` (centres unmarked) [Azelastine chloride, reference compound] was tested, and the “antipruritic effects (in words)” value (ICR mice [1]) was “potent antipruritic effects in a dose-dependent manner”, the “% Inhibition (mean ± SE)” value (ICR mice [1]; dose 1 mg/mouse) was 63.7 ± 26.6% and the “% Inhibition (mean ± SE)” value (ICR mice [1]; dose 10 mg/mouse) was 91.7 ± 6.8%.
For `CC(C)(C)c1ccc(CNC(=S)NCc2ccc(NS(C)(=O)=O)c(F)c2)cc1` [Compound 1, 1-(4-t-butylbenzyl)-3-(3-fluoro-4-methanesulfonylaminobenzyl)thiourea], the “inhibitory effects on itching (in words)” value (ICR mice [2]) was “potent antipruritic effects in a dose-dependent manner”, the “% Inhibition (mean ± SE)” value (ICR mice [2]; dose 0.03 mg/mouse) was −6.51 ± 17.39% and the “% Inhibition (mean ± SE)” value (ICR mice [2]; dose 0.1 mg/mouse) was 36.96 ± 13.44%. For the same compound, the “% Inhibition (mean ± SE)” value (ICR mice [2]; dose 0.3 mg/mouse) was 44.11 ± 10.36%, the “% Inhibition (mean ± SE)” value (ICR mice [2]; dose 1 mg/mouse) was 69.03 ± 7.76% and the “% Inhibition (mean ± SE)” value (BALB/C mice; dose 3 mg) was −22.90 ± 13.19%. The “% Inhibition (mean ± SE)” value (BALB/C mice; dose 10 mg) was 42.24 ± 24.48%, the “% Inhibition (mean ± SE)” value (BALB/C mice; dose 30 mg) was 42.97 ± 7.13% and the “% Inhibition (mean ± SE)” value (BALB/C mice; dose 100 mg) was 54.11 ± 18.50%. For the same compound, the “antipruritic effects (in words)” value (ICR mice [1]) was “potent anti-pruritic effects in a dose-dependent manner”, the “% Inhibition (mean ± SE)” value (ICR mice [1]; dose 10 mg/mouse) was 39.8 ± 18.1% and the “% Inhibition (mean ± SE)” value (ICR mice [1]; dose 30 mg/mouse) was 46.7 ± 24.0%. For the same compound, the “% Inhibition (mean ± SE)” value (ICR mice [1]; dose 100 mg/mouse) was 75.8 ± 26.9%, the “% Inhibition (mean ± SE)” value (ICR mice [3]; dose 0.1 mg/mouse) was 33.74 ± 37.73% and the “% Inhibition (mean ± SE)” value (ICR mice [3]; dose 0.3 mg/mouse) was 52.03 ± 24.14%. The “% Inhibition (mean ± SE)” value (ICR mice [3]; dose 1 mg/mouse) was 106.91 ± 30.13%, the “inhibitory effects on skin irritation (in words)” value (ICR mice [3]; tacrolimus) was “inhibitory effects on skin irritation in a dose-dependent manner” and the “% Inhibition (mean)” value ([4]; decrease in cumulative irritation index vs retinoic acid + solvent, compound 1%, 100 μl/application site, topical, rabbits) was 40%. The “Cumulative irritation index (mean ± SE)” value ([4]; erythema score 0-4 on fifth day, retinoic acid 0.025% + compound 1%, 100 μl/application site, topical twice daily for four days, rabbits) was 1.88 ± 0.45 and the “inhibitory effects on skin irritation (in words)” value ([4]; retinoic acid, New Zealand white rabbits, topical) was “inhibitory effects on skin irritation”.
For `CC(C)(C)c1ccc(CNC(=S)NCc2ccc(NS(C)(=O)=O)c(Cl)c2)cc1` [Compound 2, 1-(4-t-butylbenzyl)-3-(3-chloro-4-methanesulfonylaminobenzyl)thiourea], the “% Inhibition (mean ± SE)” value (BALB/C mice; dose 3 mg) was 0.89 ± 7.23%, the “% Inhibition (mean ± SE)” value (BALB/C mice; dose 10 mg) was 7.42 ± 10.43% and the “% Inhibition (mean ± SE)” value (BALB/C mice; dose 30 mg) was 44.53 ± 11.07%.
For `Cc1cc(CNC(=S)NCc2ccc(C(C)(C)C)cc2)ccc1NS(C)(=O)=O` [Compound 3, 1-(4-t-butylbenzyl)-3-(3-methyl-4-methanesulfonylaminobenzyl)thiourea], the “% Inhibition (mean ± SE)” value (BALB/C mice; dose 3 mg) was 8.21 ± 5.82%, the “% Inhibition (mean ± SE)” value (BALB/C mice; dose 10 mg) was 11.78 ± 15.26% and the “% Inhibition (mean ± SE)” value (BALB/C mice; dose 30 mg) was 38.76 ± 7.77%.
With `CN1CCC(=C2c3ccccc3CC(=O)c3sccc32)CC1` [Ketotifen, ketotifen, reference compound] the “inhibitory effects on itching (in words)” value (BALB/C mice) was “no inhibitory effects on itching” and the “% Inhibition (mean ± SE)” value (BALB/C mice; dose 10 mg) was −24.91 ± 15.09%.
For `CN(C)CCC(c1ccc(Cl)cc1)c1ccccn1` (centres unmarked) [chlorpheniramine, reference compound], the “inhibitory effects on itching (in words)” value (ICR mice [2]) was “no inhibitory effects on itching”, the “% Inhibition (mean ± SE)” value (ICR mice [2]; dose 0.3 mg/mouse) was −77.61 ± 70.54% and the “inhibitory effects on itching (in words)” value (BALB/C mice) was “no inhibitory effects on itching”. For the same compound, the “% Inhibition (mean ± SE)” value (BALB/C mice; dose 3 mg) was −22.90 ± 28.21%.

— patent publication US20080255238A1, “COMPOSITION CONTAINING A THIOUREA DERIVATIVE FOR PREVENTING OR TREATING PRURITIC OR IRRITANT SKIN DISEASES” (AMOREPACIFIC CORPORATION, priority 2004, published 2008)
